Patent US10434083B2, “Transmammary delivery of cyclooxygenase-2 inhibitors for analgesia in neonates” (Iowa State University Research Foundation, Inc., priority 2018, dated 2019)
Like-named read-outs stand apart in the source and are kept apart here.

Assay: Firocoxib pharmacokinetics in sows following IM administration (Example 2)
Assay type: in vivo, swine
Conditions: for AUC(0-t) / AUC(0-inf) / CL/F / Cmax / MRT inf / Tmax / MRT last / Vd/F / half-life: female, Yorkshire×Landrace, plasma; for AUC(0-t) / AUC(0-inf): im; for MRT last: read-out: MRT0-last; for Vd/F: read-out: VZ/F; for half-life: read-out: plasma elimination half-life (T1/2λz), range over dose groups
Method: Protocols involved intramuscular injection of Firocoxib to lactating sows at either 0.5, 1.0, 1.5 or 2 mg/kg, and analysis in sows and select piglets at 21 days post treatment. Pregnant Yorkshire×Landrace sows (mean±SEM bodyweight, 250.3±7.61 kg) that were approximately 1 week before farrowing were sourced from a commercial swine farm. Each sow was examined by a veterinarian to confirm that she was healthy and pregnant. A unique numerical ear tag (Allflex Global Ear Tags, Allflex USA, Inc., DFW Airport, TX) was placed in the right ear of each sow for identification. The sows were housed in a commercial swine operation at MVS (West Point, Nebr.) in accordance with the recommendations in the Guide for the Care and Use of Agricultural Animals in Agricultural Use and Research and Teaching (Guide for the Care and Use of Agricultural Animals in Agricultural Research and Teaching, 2010). Sows were placed in Quad- or Euro-style farrowing stalls (Thorp Equipment, Thorp, Wis.), depending on availability. Regardless of stall type, each sow was housed in a farrowing crate measuring 0.6 m×2.1 m. Quad and Euro crates had piglet creep areas of 7.0 m^2 and 6.4 m^2, respectively. After farrowing, a heat lamp was provided on one side of the creep area for the piglets in each crate. All sows were fed a diet that met or exceeded National Research Council (NRC, 2012) nutrient requirements and water was provided ad libitum. Each litter provided at least six male and three female piglets for sampling with the exception of one sow that had 5 males and 4 females in the litter, and one sow that had 3 males and 6 females in the litter. Piglets were clinically examined and weighed on Study Day 0 prior to dosing. Cross fostering of the litters was permitted. Bodyweights were used to randomly assign sows to 1 of 4 treatment groups (n=4 sows/group) as detailed in Table 3.
A sample size of 4 sows was selected to describe the pharmacokinetics of firocoxib. For the comparison of plasma cortisol concentrations and average daily gain in bodyweight (ADG), a sample size of 36 piglets/treatment group was calculated to provide Statistical Power of 0.8 assuming an alpha of 0.05, sigma of 0.54 and delta of 0.20. At the time of study commencement (T0), sows received a single dose of firocoxib (Equioxx Injection, Merial, Duluth, Ga.) (Lot number 4VP07, Expiration Date November 2017) administered at either 0.5 mg/kg, 1.0 mg/kg, 1.5 mg/kg, or 2.0 mg/kg by IM injection into the right lateral neck using an 18-gauge, 1.5-inch needle attached to a 20-mL syringe (Table 3). In cases where the calculated dose volume exceeded 20-mL, the remaining volume was administered via IM injection in the left lateral neck muscle.
Blood samples for firocoxib determination were collected from the sows and three piglets/litter (two male and one female piglet at each time point) at 0, 2, 4, 6, 8, 12, 24, 48, 72, 96, and 120 h post-drug injection to the sow. The blood sample from each sow (8 mL/sample) was collected via the left or right jugular vein using a 25.4-mm, 16-gauge hypodermic needle (Air-Tite Products, Virginia Beach, Va.) attached to a 12-mL Luer-Lok syringe (TycoHealth Care, Mansfield, Mass.). During blood collection, a pig snare was used for manual restraint of each sow in her crate. The blood samples (2 mL/sample) from the piglets were collected from the left or right cranial vena cava using a 3.8-cm, 20-gauge hypodermic needle (TycoHealth Care, Mansfield, Mass.) attached to a 3-mL syringe (TycoHealth Care, Mansfield, Mass.). Physical restraint of the piglet was achieved by placing the animal in a supine position during sample collection. Blood samples were transferred to 6-mL evacuated tubes that contained lithium heparin (Vacuette plasma tubes, Greiner Bio-One, Monroe, N.C.) that were stored on ice for up to 2 h before processing. The blood samples were centrifuged for 10 min at 1,500×g. The plasma was then removed, placed in cryovials, and frozen at −80° C. until analysis. […]

## CC1(C)OC(=O)C(OCC2CC2)=C1c1ccc(S(C)(=O)=O)cc1 [firocoxib]
pig, 0.5 mg/kg, sow dose 0.5 mg/kg (Table 7), read-out: Sow AUClast
  AUC(0-t): 1.53 µg·h/mL
pig, 0.5 mg/kg, sow dose 0.5 mg/kg (Table 7), read-out: Sow AUC∞
  AUC(0-inf): 1.59 µg·h/mL
pig, 0.5 mg/kg, sows, 0.5 mg/kg IM, mean, read-out: AUC0-24h
  AUC(0-t): 1.03 µg·h/mL
pig, 0.5 mg/kg, sows, 0.5 mg/kg IM, mean, read-out: AUC0-last
  AUC(0-t): 1.53 µg·h/mL
pig, 0.5 mg/kg, sows, 0.5 mg/kg IM, mean, read-out: AUCINF
  AUC(0-inf): 1.59 µg·h/mL
pig, 1 mg/kg, sow dose 1.0 mg/kg (Table 7), read-out: Sow AUClast
  AUC(0-t): 5.33 µg·h/mL
pig, 1 mg/kg, sow dose 1.0 mg/kg (Table 7), read-out: Sow AUC∞
  AUC(0-inf): 5.62 µg·h/mL
pig, 1 mg/kg, sows, 1.0 mg/kg IM, mean, read-out: AUC0-24h
  AUC(0-t): 2.67 µg·h/mL
pig, 1 mg/kg, sows, 1.0 mg/kg IM, mean, read-out: AUC0-last
  AUC(0-t): 5.33 µg·h/mL
pig, 1 mg/kg, sows, 1.0 mg/kg IM, mean, read-out: AUCINF
  AUC(0-inf): 5.62 µg·h/mL
pig, 1.5 mg/kg, sow dose 1.5 mg/kg (Table 7), read-out: Sow AUClast
  AUC(0-t): 8.32 µg·h/mL
pig, 1.5 mg/kg, sow dose 1.5 mg/kg (Table 7), read-out: Sow AUC∞
  AUC(0-inf): 8.66 µg·h/mL
pig, 1.5 mg/kg, sows, 1.5 mg/kg IM, mean, read-out: AUC0-24h
  AUC(0-t): 4.84 µg·h/mL
pig, 1.5 mg/kg, sows, 1.5 mg/kg IM, mean, read-out: AUC0-last
  AUC(0-t): 8.32 µg·h/mL
pig, 1.5 mg/kg, sows, 1.5 mg/kg IM, mean, read-out: AUCINF
  AUC(0-inf): 8.66 µg·h/mL
pig, 2 mg/kg, sow dose 2.0 mg/kg (Table 7), read-out: Sow AUClast
  AUC(0-t): 12.7 µg·h/mL
pig, 2 mg/kg, sow dose 2.0 mg/kg (Table 7), read-out: Sow AUC∞
  AUC(0-inf): 13.7 µg·h/mL
pig, 2 mg/kg, sows, 2.0 mg/kg IM, mean, read-out: AUC0-24h
  AUC(0-t): 6.64 µg·h/mL
pig, 2 mg/kg, sows, 2.0 mg/kg IM, mean, read-out: AUC0-last
  AUC(0-t): 12.7 µg·h/mL
pig, 2 mg/kg, sows, 2.0 mg/kg IM, mean, read-out: AUCINF
  AUC(0-inf): 13.7 µg·h/mL
pig, sows, 0.5 mg/kg IM, mean
  CL/F: 0.33 L/h/kg
  Cmax: 0.108 ± 0.0152 µg/mL
  MRT inf: 29.4 h
  Tmax: 3.5 h
  MRT last: 27.2 h
  Vd/F: 13.8 L/kg
pig, sows, 1.0 mg/kg IM, mean
  CL/F: 0.21 L/h/kg
  Cmax: 0.158 ± 0.0249 µg/mL
  MRT inf: 34.8 h
  Tmax: 5.5 h
  MRT last: 29.4 h
  Vd/F: 7.82 L/kg
pig, sows, 1.5 mg/kg IM, mean
  CL/F: 0.19 L/h/kg
  Cmax: 0.344 ± 0.0789 µg/mL
  MRT inf: 33.5 h
  Tmax: 3 h
  MRT last: 26.4 h
  Vd/F: 9.12 L/kg
pig, sows, 2.0 mg/kg IM, mean
  CL/F: 0.18 L/h/kg
  Cmax: 0.453 ± 0.0903 µg/mL
  MRT inf: 36.8 h
  Tmax: 4.5 h
  MRT last: 29.1 h
  Vd/F: 7.75 L/kg
pig, sows, 0.5-2.0 mg/kg IM
  half-life: 26.7 to 31.1 h
swine, sows, 0.5-2.0 mg/kg IM
  half-life: 26.7 to 31.1 h
sows, 0.5 mg/kg IM, mean
  AUC_Exp: 3.39%
  AUMC: 31765 h^2 × ng/mL
  T1/2λZ: 28.87 h
  λZ: 0.03 h⁻¹
sows, 1.0 mg/kg IM, mean
  AUC_Exp: 4.15%
  AUMC: 164892 h^2 × ng/mL
  T1/2λZ: 26.70 h
  λZ: 0.03 h⁻¹
sows, 1.5 mg/kg IM, mean
  AUC_Exp: 4.98%
  AUMC: 215365 h^2 × ng/mL
  T1/2λZ: 29.89 h
  λZ: 0.02 h⁻¹
sows, 2.0 mg/kg IM, mean
  AUC_Exp: 5.61%
  AUMC: 392753 h^2 × ng/mL
  T1/2λZ: 31.09 h
  λZ: 0.02 h⁻¹
sows, 0.5-2.0 mg/kg IM
  volume of distribution, range over dose groups: 7.75 to 13.8 L/kg
Vs flunixin (0.30 L/kg) in pigs
  volume of distribution in sows, fold larger than flunixin: approximately 26 fold
Vs flunixin (7.5 h) in pigs
  elimination half-life in sows, fold longer than flunixin: ~4 fold
Vs ketoprofen (0.35 L/kg) in pigs
  volume of distribution in sows, fold greater than ketoprofen: ~22 fold
Vs ketoprofen (3 h) in pigs
  elimination half-life in sows, fold longer than ketoprofen: approximately 10 fold
Vs meloxicam (0.42 L/kg) in pigs
  volume of distribution in sows, fold greater than meloxicam: ~18 fold
Vs meloxicam (6 h) in pigs
  elimination half-life in sows, fold longer than meloxicam: ~5 fold
